Earlier results in patent US20100202983A1, “SELECTIVELY TARGETED ANTIMICROBIALS FOR THE TREATMENT OF PERIODONTAL DISEASE” (priority 2009, published 2010).

Test system: S. mutans
Conditions: cell culture

Substance	efficacy for reducing the colony forming units of S. mutans
FBRW-15: antimicrobial peptide useful in the present invention (IKQLLHFFQRFGGGRWRWRWF; FBRW-15)	efficacy has been demonstrated
FBRW-16: antimicrobial peptide useful in the present invention (LKRFLKWFKRFGGGRWRWRWF; FBRW-16)	efficacy has been demonstrated
FBRW-22: antimicrobial peptide useful in the present invention (RWRWRWFGGGFKKFWKWFRRF; FBRW-22)	efficacy has been demonstrated
FBRW-24: antimicrobial peptide useful in the present invention (RWRWRWFGGGLKRFLKWFKRF; FBRW-24)	efficacy has been demonstrated
FBα-20: antimicrobial peptide useful in the present invention (RWRRLLKKLHHLLHGGGFKKFWKWFRRF; FBalpha-20)	efficacy has been demonstrated
FBα-21: antimicrobial peptide useful in the present invention (RWRRLLKKLHHLLHGGGIKQLLHFFQRF; FBalpha-21)	efficacy has been demonstrated

Test system: S. mutans
Conditions: not given

Substance	efficacy for reducing the biofilms formed by S. mutans, and other microbial pathogenic microbes
1903 BD2-21: S. mutans-specific targeting peptide linked via linker peptide to an antimicrobial peptide (NIFEYFLEGGGKLFKFLRKHLL; selectively/specifically targeted antimicrobial peptide (STAMP) chimeric polypeptide 1903-BD2.21)	efficacy has been demonstrated
C16 BD2.21: S. mutans-specific targeting peptide linked via linker peptide to an antimicrobial peptide (TFFRLFNRSFTQALGKGGGKLFKFLRKHLL; selectively/specifically targeted antimicrobial peptide (STAMP) chimeric polypeptide C16-BD2.21)	efficacy has been demonstrated
C16G2: S. mutans-specific targeting peptide linked via linker peptide to an antimicrobial peptide (TFFRLFNRSFTQALGKGGGKNLRIIRKGIHIIKKY; selectively/specifically targeted antimicrobial peptide (STAMP) chimeric polypeptide C16G2)	efficacy has been demonstrated
M8-33: S. mutans-specific targeting peptide linked via linker peptide to an antimicrobial peptide (TFFRLFNRSGGGFKKFWKWFRRF; selectively/specifically targeted antimicrobial peptide (STAMP) chimeric polypeptide M8-33)	efficacy has been demonstrated
M8G2: S. mutans-specific targeting peptide linked via linker peptide to an antimicrobial peptide (TFFRLFNRGGGKNLRIIRKGIHIIKKY; selectively/specifically targeted antimicrobial peptide (STAMP) chimeric polypeptide M8G2)	efficacy has been demonstrated

Test system: Porphyromonas gingivalis and Streptococcus mitis
Conditions: Murakami et al., Infect. Immun. 59:3284 (1991)

Substance	inhibition of coaggregation between Porphyromonas gingivalis and Streptococcus mitis
Histatin 5: 24-residue peptide from human saliva with antifungal properties (DSHAKRHHGYKRKFHEKHHSHRGY; histatin 5 peptide)	inhibits coaggregation
